Data published in patent US7459455B2, “Pyrimidine compounds” (SmithKline Beecham Corporation, priority 2002, dated 2008).
Counter-ions that a name gives are not always drawn.

How the values were obtained:
Recombinant GST-Tie2 = target: T1, Recombinant GST-Tie2 (Homo sapiens, UniProt Q02763); assay: Tie2 Fluorescence Polarization Kinase Activity Assay (TIE2-FP); assay type: biochemical; conditions: activated Tie2, 200 μM ATP
T1 construct: GST
Experimental: Tie2 Fluorescence Polarization Kinase Activity Assay: (TIE2-FP)
Activation of Recombinant Tie2 Activation:
Recombinant GST-Tie2 was activated by incubating the enzyme in 20 mM Tris-HCl, pH 7.5, 12 mM MgCl2, 100 mM NaCl, 20 μM sodium vanidate, 1 mM DT and 300 μM ATP at room temperature for 2 hours. The activation mixture was then passed through a NAP-25 desalting column (Pharmacia Biotech cat. no. 17-0852-O2) to remove the free ATP. The activated enzyme was stored as aliquots at −80° C. in 20 mM Tris-HCl, pH 7.5 and 100 mM NaCl.
The final assay conditions were 50 mM HEPES, pH 7.5, 5% DMSO (when screening compounds), 200 μM ATP, 5 mM MgCl2, 1 mM DTT, 50 μM sodium vanidate, 1 nM activated enzyme, and 200 μM peptide. IC50's of compounds were measured under subsaturating ATP (200 μM) and varing concentrations of activated Tie2 and peptide substrate (RFWKYEFWR-OH; MW 1873 Da, TFA salt). Panvera Anti-phosphotyrosine antibody (Cat#P2840) and PTK Green Tracer (Cat#P2842) were used to detect the phosphorylated peptide. Polarization was measured on a TECAN Polarion in 138-second cycles for 30 minutes at room temperature. IC50's were then determined from the % polarization using normal calculation methods.

GST-VEGFR2 = target: T2, GST-VEGFR2 (Homo sapiens, UniProt P35968); assay: VEGF-R2 Enzyme Assay (VEGF-E), LANCE method; assay type: biochemical; conditions: GST-VEGFR2, 75 μM ATP, peptide phosphorylation
T2 construct: GST-VEGFR2, baculovirus expressed recombinant constructs of the intracellular domains of human TIE2 tagged by GST; made in house
T2 sequence (P35968 786-1356 limits assumed): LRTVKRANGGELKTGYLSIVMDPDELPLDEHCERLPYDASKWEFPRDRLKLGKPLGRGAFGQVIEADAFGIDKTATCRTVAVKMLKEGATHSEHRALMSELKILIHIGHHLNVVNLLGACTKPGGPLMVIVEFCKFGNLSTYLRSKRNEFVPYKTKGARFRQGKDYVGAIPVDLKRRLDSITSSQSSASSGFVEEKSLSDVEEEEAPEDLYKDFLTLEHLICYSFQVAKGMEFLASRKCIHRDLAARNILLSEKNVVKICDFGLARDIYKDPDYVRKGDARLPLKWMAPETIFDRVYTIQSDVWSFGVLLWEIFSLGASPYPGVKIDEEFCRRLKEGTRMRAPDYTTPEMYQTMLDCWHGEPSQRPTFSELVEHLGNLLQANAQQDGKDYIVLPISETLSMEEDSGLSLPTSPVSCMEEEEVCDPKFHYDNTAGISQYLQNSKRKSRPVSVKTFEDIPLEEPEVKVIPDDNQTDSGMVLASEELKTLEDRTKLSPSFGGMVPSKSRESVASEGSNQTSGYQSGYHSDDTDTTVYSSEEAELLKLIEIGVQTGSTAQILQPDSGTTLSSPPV
Source text: VEGF-R2 Enzyme Assay VEGF-E)
The VEGF enzyme assay used the LANCE method (Wallac) and GST-VEGFR2, baculovirus expressed recombinant constructs of the intracellular domains of human TIE2 tagged by GST. The method measured the ability of the purified enzymes to catalyse the transfer of the γ-phosphate from ATP onto tyrosine residues in a biotinylated synthetic peptide, (biotin-aminohexyl-EEEEYFELVAKKKK-NH2). This peptide phosphorylation was detected using the following procedure: GST-VEGFR2 was incubated for 40-60 mins at room temperature with 75 μM ATP, 5 mM MgCl2, 0.1 mM DTT, 0.1 mg/mL BSA and the test compound (diluted from a 10 mM stock in DMSO for desired concentration) in 100 mM HEPES buffer. The reaction was stopped by the addition of EDTA (final concentration 50 mM). Streptavidin linked-APC (allophycocyanin, Molecular Probe) and Europium-labeled anti-phosphorylated tyrosile antibody (Wallac) were then added at the final concentration of 15 nM and 1 nM, respectively. The APC signal was measured using an ARVO multilabel counter (Wallac Berthold, Japan). The percent inhibition of activity was calculated relative to blank control wells. The concentration of test compound that inhibits 50% of activity (IC50) was interpolated using nonlinear regression (Levernberg-Marquardt) and the equation, γ=Vmax (1−x/(K+x))+Y2, where “K” was equal to the IC50. The IC50 values were converted to pIC50 values, i.e., −log IC50 in Molar concentration.

[1] = tested on: Human umbilical cord endothelial cells (HUVEC); assay: VEGF-Driven Cellular Proliferation Assay: BrdU Incorporation Assay (VEGF-C); assay type: cell-based
Experimental: VEGF-Driven Cellular Proliferation Assay: BrdU Incorporation Assay (VEGF-C)
Human umbilical cord endothelial cells (HUVEC, Clonetics, CC2519) were passaged in Type I collagen-coated 100-mm petridishes in EGM-MV medium (Clonetics, CC3125) at 37 C in a humidified 5% CO2, 95% air incubator. (HUVEC passaged more than 6 times in vitro were discarded and not subjected to assaying.) The cells were harvested using trypsin/EDTA, counted using a haemocytometer and plated at 5000 cells/well in a Type I-collagen coated 96-well plate (Becton Dickinson, 354407) in M199 medium (Gibco BRL, 12340-030) containing 5% FBS (Hyclone, A 1115-L) and gentamicin (at 50 ug/ml, Gibco BRL). After incubation overnight at 37° C., the media were replaced with 100 ul of M199 serum-free medium containing compounds at various concentrations with 0.6% DMSO and gentamicin. The compounds were diluted in serum-free M199 medium from 10 mM stock solutions prepared in 100% DMSO. After a 30 min incubation at 37° C. the cells were fed with 100 ul of serum-free M199 medium containing gentamicin, 0.2% culture-grade bovine serum albumin (BSA, Sigma A1993) and 20 ng/ml of VEGF (R&D systems, 293-VE) or 0.6 ng/ml of basic FGF (R&D systems, 233-FB), and cultured at 37° C. for another 24 h. The cells were pulsed with bromodeoxyuridine (BrdU at 10 μM in serum-free M199) at 37° C. for an additional 24 h. The incorporation of BrdU into the proliferating HUVEC were analyzed using BrdU Cell Proliferation ELISA (Roche Molecular Biochemicals, 1647229) according to the manufacturer's protocols. The optical density at 450 nm was measured with a multilabel counter (ARVO SX, Wallac). The percent inhibition of cell growth was calculated relative to blank control wells. The concentration of test compound that inhibits 50% of cell growth (IC50) was interpolated using nonlinear regression (Levernberg-Marquardt) and the equation, γ=Vmax (1−x/(K+x))+Y2, where “K” was equal to the IC50. The IC50 values were converted to pIC50 values, i.e., −log IC50 in Molar concentration.

Measured: IC50

T1 sequence (Q02763 770-1124 limits assumed): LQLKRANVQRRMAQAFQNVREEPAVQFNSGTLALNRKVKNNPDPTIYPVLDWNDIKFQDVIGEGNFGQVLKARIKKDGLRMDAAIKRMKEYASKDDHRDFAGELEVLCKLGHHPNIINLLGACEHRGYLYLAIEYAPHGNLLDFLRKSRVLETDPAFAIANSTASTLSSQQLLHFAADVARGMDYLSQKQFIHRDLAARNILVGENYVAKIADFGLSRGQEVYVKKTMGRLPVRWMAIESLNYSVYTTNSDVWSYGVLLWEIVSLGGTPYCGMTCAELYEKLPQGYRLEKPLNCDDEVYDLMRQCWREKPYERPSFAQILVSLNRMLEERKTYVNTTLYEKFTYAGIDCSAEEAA

Cc1cccc(NC(=O)Nc2ccc(N(C)c3ccnc(Nc4cccc(S(N)(=O)=O)c4)n3)cc2)c1 [Example 4, 3-[(4-{methyl[4-({[(3-methylphenyl)amino]carbonyl}amino)phenyl]amino}pyrimidin-2-yl)amino]benzenesulfonamide]
< 100 nM: all assays above

CN(c1ccc(NC(=O)Nc2cccc(F)c2)cc1)c1ccnc(Nc2ccc(CS(C)(=O)=O)cc2)n1 [Example 12, N-(3-fluorophenyl)-N′-(4-{methyl[2-({4-[(methylsulfonyl)methyl]phenyl}amino)pyrimidin-4-yl]amino}phenyl)urea hydrochloride]
< 100 nM: all assays above

CN(c1ccc(NC(=O)Nc2ccc(OC(F)(F)F)cc2)cc1)c1ccnc(Nc2ccc(S(N)(=O)=O)cc2)n1 [Example 21, 4-{[4-(methyl{4-[({[4-(trifluoromethoxy)phenyl]amino}carbonyl)amino]phenyl}amino)pyrimidin-2-yl]amino}benzenesulfonamide]
< 100 nM: all assays above
